Assay results: patent US9115133B2, “Substituted fused tricyclic compounds, compositions and medicinal applications thereof” (Advinus Therapeutics Limited, priority 2011, dated 2015)

Experiments:
Format in all cases: biochemical
Details in all cases: 200 μg/ml Poly Glu-Tyr (4:1), ATP 1 uM, 90 min room temperature, luminescence
[1] = biological target: T1, Recombinant JAK3 (Amino acids 781-1124) (Homo sapiens, UniProt P52333); test: Kinase-Glo Luminescent Kinase Assay, recombinant JAK3
T1 construct: JAK3 (Amino acids 781-1124; NM_000215.3); made in house; host or cells: baculovirus expression system (Bac-to-Bac)
T1 sequence (P52333 781-1124): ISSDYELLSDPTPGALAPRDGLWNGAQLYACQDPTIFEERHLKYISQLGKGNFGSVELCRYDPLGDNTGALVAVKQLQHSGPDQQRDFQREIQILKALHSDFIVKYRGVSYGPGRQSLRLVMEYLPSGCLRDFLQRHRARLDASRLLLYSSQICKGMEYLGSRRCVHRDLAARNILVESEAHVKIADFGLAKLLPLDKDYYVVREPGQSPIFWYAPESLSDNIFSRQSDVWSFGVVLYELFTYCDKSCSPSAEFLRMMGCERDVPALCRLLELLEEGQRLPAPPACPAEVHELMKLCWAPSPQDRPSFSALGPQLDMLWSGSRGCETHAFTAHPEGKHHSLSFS
From the text: (§1) Recombinant JAK1 (Amino acids 850-1154; NM_002227.2), JAK2 (Amino acids 808-1132; NM_004972.3) and JAK3 (Amino acids 781-1124; NM_000215.3) used in the studies were expressed using Invitrogen's Bac-to-Bac baculovirus expression system according to manufacturer's instructions. Adenosine 5′-triphosphate was obtained from Sigma Aldrich chemicals (Cat # A7699). Poly Glu-Tyr (4:1) sodium salt was obtained from Sigma Aldrich (Cat # P0275), Kinase Glo® Luminescent Kinase assay kit was obtained from Promega (Cat # V6713) Kinase activity was assessed by Promega Kinase-Glo® Luminescent Kinase Assay kit using 200 μg/ml Poly Glu-Tyr (4:1) as substrate and ATP at 1 uM concentration. The reactions were carried out in 384 well plates in total reaction volume of 20 uL. Reaction mixtures contained 50 mM HEPES pH 7.4, 5 mM MgCl2, 1 mM DTT, 0.01% BSA, 0.01% Tween 20. Kinase was pre-incubated with compounds or 1% DMSO for 5 min before addition of substrate and ATP to check for inhibition. Kinase reactions were carried out at room temperature for 90 min. The reactions were stopped by adding 5 μl of Kinase Glo® reagent & 10 μl of reaction mixture followed by measuring luminescence. The luminescent signal is correlated with the amount of ATP present at the end of kinase reaction and is inversely correlated with the amount of kinase activity. For each data point, % inhibition is calculated based on uninhibited reaction (without compound) which is considered as 100% activity over no enzyme or substrate controls. Dose response data is then fit using a four parameter logistic equation using Graph-pad Prism 5 software to determine inhibition constant 50 (IC50).

[2] = biological target: T2, Recombinant JAK2 (Amino acids 808-1132) (Homo sapiens, UniProt O60674); test: Kinase-Glo Luminescent Kinase Assay, recombinant JAK2
T2 construct: JAK2 (Amino acids 808-1132; NM_004972.3); made in house; host or cells: baculovirus expression system (Bac-to-Bac)
T2 sequence (O60674 808-1132): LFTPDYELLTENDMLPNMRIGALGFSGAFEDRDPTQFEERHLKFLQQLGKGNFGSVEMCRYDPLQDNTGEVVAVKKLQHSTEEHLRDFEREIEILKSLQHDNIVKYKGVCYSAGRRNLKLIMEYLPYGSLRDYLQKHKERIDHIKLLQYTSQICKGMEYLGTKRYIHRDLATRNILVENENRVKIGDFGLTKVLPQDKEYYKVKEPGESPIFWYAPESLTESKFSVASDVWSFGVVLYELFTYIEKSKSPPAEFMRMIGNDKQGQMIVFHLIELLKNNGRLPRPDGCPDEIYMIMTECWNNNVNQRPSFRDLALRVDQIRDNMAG
From the text: as §1

[3] = biological target: T3, Recombinant JAK1 (Amino acids 850-1154) (Homo sapiens, UniProt P23458); test: Kinase-Glo Luminescent Kinase Assay, recombinant JAK1
T3 construct: Recombinant JAK1 (Amino acids 850-1154; NM_002227.2); made in house; host or cells: baculovirus expression system (Bac-to-Bac)
T3 sequence (P23458 850-1154): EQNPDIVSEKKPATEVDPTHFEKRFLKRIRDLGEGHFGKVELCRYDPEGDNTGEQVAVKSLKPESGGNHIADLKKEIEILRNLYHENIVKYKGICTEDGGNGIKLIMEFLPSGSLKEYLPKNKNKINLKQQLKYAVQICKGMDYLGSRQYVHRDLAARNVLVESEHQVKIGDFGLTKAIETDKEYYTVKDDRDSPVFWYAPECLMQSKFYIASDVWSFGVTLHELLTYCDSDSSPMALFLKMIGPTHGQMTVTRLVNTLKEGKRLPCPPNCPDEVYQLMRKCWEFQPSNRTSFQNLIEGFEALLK
From the text: as §1

SMILES | IC50 [1] | IC50 [2] | IC50 [3]
CC(C)(C)OC(=O)NC1CCN(c2ccnc3cnc4[nH]ccc4c23)C1 (centres unmarked) [Comp. 124, tert-Butyl N-[1-(3H-pyrrolo[3,2-f][1,7]naphthyridin-9-yl)pyrrolidin-3-yl]carbamate] | > 20 nM | > 20 nM | –
O=S(=O)(C1CC1)N1CCCC(c2ccnc3cnc4[nH]ccc4c23)C1 (centres unmarked) [Ex. 6, 9-(1-cyclopropylsulfonyl-3-piperidyl)-3H-pyrrolo[3,2-f][1,7]naphthyridine] | 1 to 20 nM | – | 1 to 20 nM
N#CCS(=O)(=O)N1CCCC(c2ccnc3cnc4[nH]ccc4c23)C1 (centres unmarked) [Ex. 7, 2-[[3-(3H-pyrrolo[3,2-f][1,7]naphthyridin-9-yl)-1-piperidyl]sulfonyl]acetonitrile] | 1 to 20 nM | – | 1 to 20 nM
CC(C)CS(=O)(=O)N1CCCC(c2ccnc3cnc4[nH]ccc4c23)C1 (centres unmarked) [Ex. 8, 9-(1-isobutylsulfonyl-3-piperidyl)-3H-pyrrolo[3,2-f][1,7]naphthyridine] | 1 to 20 nM | – | 1 to 20 nM
CS(=O)(=O)N1CCC[C@H](c2ccnc3cnc4[nH]ccc4c23)C1 [Ex. 10A, (R)9-(1-methylsulfonyl-3-piperidyl)-3H-pyrrolo[3,2-f][1,7]naphthyridine] | > 20 nM | > 20 nM | –
O=C(CC(F)(F)F)N1CC[C@@H](c2ccnc3cnc4[nH]ccc4c23)C1 [Ex. 15B, (S)3,3,3-trifluoro-1-[3-(3H-pyrrolo[3,2-f][1,7]naphthyridin-9-yl)pyrrolidin-1-yl]propan-1-one] | > 20 nM | 1 to 20 nM | –
N#CCS(=O)(=O)N1CC[C@H](c2ccnc3cnc4[nH]ccc4c23)C1 [Ex. 16A, (R)2-[3-(3H-pyrrolo[3,2-f][1,7]naphthyridin-9-yl)pyrrolidin-1-yl]sulfonylacetonitrile] | > 20 nM | 1 to 20 nM | –
N#CCS(=O)(=O)N1CC[C@@H](c2ccnc3cnc4[nH]ccc4c23)C1 [Ex. 16B, (S)2-[3-(3H-pyrrolo[3,2-f][1,7]naphthyridin-9-yl)pyrrolidin-1-yl]sulfonylacetonitrile] | > 20 nM | > 20 nM | –
N#CCC(=O)N1CCC[C@H](c2ncnc3cnc4[nH]ccc4c23)C1 [Ex. 23B, (S)3-Oxo-3-[3-(3H-3,4,6,8-tetraazacyclopenta[a]naphthalen-9-yl)-piperidin-1-yl]-propionitrile] | 1 to 20 nM | 1 to 20 nM | –
O=C(CC(F)(F)F)N1CCC[C@H](c2ncnc3cnc4[nH]ccc4c23)C1 [Ex. 24B, (S)3,3,3-Trifluoro-1-[3-(3H-3,4,6,8-tetraazacyclopenta[a]naphthalen-9-yl)-piperidin-1-yl]-propan-1-one] | 1 to 20 nM | 1 to 20 nM | –
O=C(NC1CC1)N1CCCC(c2ccnc3cnc4[nH]ccc4c23)C1 (centres unmarked) [Ex. 46, N-cyclopropyl-3-(3H-pyrrolo[3,2-f][1,7]naphthyridin-9-yl)piperidine-1-carboxamide] | > 20 nM | > 20 nM | –
O=C(OCC(F)(F)F)N1CCCC(c2ccnc3cnc4[nH]ccc4c23)C1 (centres unmarked) [Ex. 51, 2,2,2-trifluoroethyl 3-(3H-pyrrolo[3,2-f][1,7]naphthyridin-9-yl)piperidine-1-carboxylate] | 1 to 20 nM | 1 to 20 nM | –
CC(C)OC(=O)N1CCCC(c2ccnc3cnc4[nH]ccc4c23)C1 (centres unmarked) [Ex. 52, Isopropyl 3-(3H-pyrrolo[3,2-f][1,7]naphthyridin-9-yl)piperidine-1-carboxylate] | 1 to 20 nM | 1 to 20 nM | –
COCCOC1CCCN(c2ccnc3cnc4[nH]ccc4c23)C1 (centres unmarked) [Ex. 57, 9-[3-(2-methoxyethoxy)-1-piperidyl]-3H-pyrrolo[3,2-f][1,7]naphthyridine] | > 20 nM | > 20 nM | –
c1cc(N2CCCCC2)c2c(cnc3[nH]ccc32)n1 [Ex. 58, 9-(1-piperidyl)-3H-pyrrolo[3,2-f][1,7]naphthyridine] | 1 to 20 nM | 1 to 20 nM | –
c1cc(N2CCC(OCC3CC3)C2)c2c(cnc3[nH]ccc32)n1 (centres unmarked) [Ex. 59, 9-[3-(cyclopropylmethoxy)pyrrolidin-1-yl]-3H-pyrrolo[3,2-f][1,7]naphthyridine] | 1 to 20 nM | > 20 nM | –
CN(C(=O)CC1CC1)C1CCCN(c2ccnc3cnc4[nH]ccc4c23)C1 (centres unmarked) [Ex. 63, 2-cyclopropyl-N-methyl-N-[1-(3H-pyrrolo[3,2-f][1,7]naphthyridin-9-yl)-3-piperidyl]acetamide] | > 20 nM | – | > 20 nM
CC(C)CNC(=O)C1CCCN(c2ccnc3cnc4[nH]ccc4c23)C1 (centres unmarked) [Ex. 67, N-isobutyl-1-(3H-pyrrolo[3,2-f][1,7]naphthyridin-9-yl)piperidine-3-carboxamide] | > 20 nM | – | > 20 nM
CS(=O)(=O)NC1CCCN(c2ccnc3cnc4[nH]ccc4c23)C1 (centres unmarked) [Ex. 73, N-[1-(3H-pyrrolo[3,2-f][1,7]naphthyridin-9-yl)-3-piperidyl] methanesulfonamide] | 1 to 20 nM | – | > 20 nM
CC(C)NC(=O)C1CCN(c2ccnc3cnc4[nH]ccc4c23)CC1 [Ex. 75, N-isopropyl-1-(3H-pyrrolo[3,2-f][1,7]naphthyridin-9-yl)piperidine-4-carboxamide] | > 20 nM | – | > 20 nM
O=C(NC1CC1)C1CCN(c2ccnc3cnc4[nH]ccc4c23)CC1 [Ex. 76, N-cyclopropyl-1-(3H-pyrrolo[3,2-f][1,7]naphthyridin-9-yl)piperidine-4-carboxamide] | > 20 nM | – | > 20 nM
COCCNC(=O)C1CCN(c2ccnc3cnc4[nH]ccc4c23)CC1 [Ex. 77, N-(2-methoxyethyl)-1-(3H-pyrrolo[3,2-f][1,7]naphthyridin-9-yl)piperidine-4-carboxamide] | > 20 nM | – | > 20 nM
O=C(NCC(F)(F)F)C1CCN(c2ccnc3cnc4[nH]ccc4c23)CC1 [Ex. 78, 1-(3H-pyrrolo[3,2-f][1,7]naphthyridin-9-yl)-N-(2,2,2-trifluoroethyl)piperidine-4-carboxamide] | > 20 nM | – | > 20 nM
CN(C(=O)C1CCCN(c2ccnc3cnc4[nH]ccc4c23)C1)C1CC1 (centres unmarked) [Ex. 79, N-cyclopropyl-N-methyl-1-(3H-pyrrolo[3,2-f][1,7]naphthyridin-9-yl)piperidine-3-carboxamide] | > 20 nM | – | 1 to 20 nM
CN(CC(F)(F)F)C(=O)C1CCCN(c2ccnc3cnc4[nH]ccc4c23)C1 (centres unmarked) [Ex. 80, N-methyl-1-(3H-pyrrolo[3,2-f][1,7]naphthyridin-9-yl)-N-(2,2,2-trifluoroethyl)piperidine-3-carboxamide] | 1 to 20 nM | – | 1 to 20 nM
CN(CC(F)(F)F)C(=O)C1CCN(c2ccnc3cnc4[nH]ccc4c23)CC1 [Ex. 82, N-methyl-1-(3H-yrrolo[3,2-f][1,7]naphthyridin-9-yl)-N-(2,2,2-trifluoroethyl) piperidine-4-carboxamide] | 1 to 20 nM | – | > 20 nM
O=C(CC(F)(F)F)N1CCN(c2ccnc3cnc4[nH]ccc4c23)CC1 [Ex. 103, 3,3,3-trifluoro-1-[4-(3H-pyrrolo[3,2-f][1,7]naphthyridin-9-yl)piperazin-1-yl]propan-1-one] | > 20 nM | – | > 20 nM
O=S(=O)(CC(F)(F)F)N1CCN(c2ccnc3cnc4[nH]ccc4c23)CC1 [Ex. 104, 9-[4-(2,2,2-trifluoroethylsulfonyl)piper-azin-1-yl]-3H-pyrrolo[3,2-f][1,7]naphthyridine] | > 20 nM | – | > 20 nM
